In ChEMBL document CHEMBL2203080, “Synthesis and biological evaluation of colchicine C-ring analogues tethered with aliphatic linkers suitable for prodrug derivatisation” (Bioorg Med Chem Lett, 2012):
pIC50: −log10 of the molar value.

Legend:
[1] = test system: DLD-1; assay: Cytotoxicity against human DLD1 cells assessed as growth inhibition; assay type: functional, cell-based
[2] = test system: HeLa; assay: Resistance factor, ratio of IC50 for human HeLa cells harboring class 3 beta tubulin mutant to IC50 for human HeLa cells; assay type: functional
[3] = test system: HeLa; assay: Cytotoxicity against human HeLa cells harboring class 3 beta tubulin mutant assessed as growth inhibition; assay type: functional, cell-based
[4] = test system: HeLa; assay: Cytotoxicity against human HeLa cells assessed as growth inhibition; assay type: functional, cell-based
[5] = test system: A2780; assay: Resistance factor, ratio of IC50 for multidrug-resistant human A2780AD cells overexpressing p-gp to IC50 for human A2780 cells; assay type: functional
[6] = Cytotoxicity against multidrug-resistant human A2780AD cells overexpressing p-gp assessed as growth inhibition; assay type: functional, cell-based; conditions: A2780 ADR
[7] = test system: A2780; assay: Cytotoxicity against human A2780 cells assessed as growth inhibition; assay type: functional, cell-based

SMILES	pIC50 [1]	Ratio IC50 [2]	pIC50 [3]	pIC50 [4]	Ratio IC50 [5]	pIC50 [6]	pIC50 [7]
COc1cc2c(c(OC)c1OC)-c1ccc(NCCN)c(=O)cc1[C@@H](NC(C)=O)CC2	6.05						
COc1cc2c(c(OC)c1OC)-c1ccc(NCCCCCCN)c(=O)cc1[C@@H](NC(C)=O)CC2	< 5.00						
CNCCNc1ccc2c(cc1=O)[C@@H](NC(C)=O)CCc1cc(OC)c(OC)c(OC)c1-2	6.89	0.95	6.26	6.23	1.6	6.11	6.30
COc1cc2c(c(OC)c1OC)-c1ccc(NCCO)c(=O)cc1[C@@H](NC(C)=O)CC2	7.16	0.85	6.78	6.72	3.3	6.62	7.15
COc1cc2c(c(OC)c1OC)-c1ccc(NCCN(C)C(=O)OC(C)(C)C)c(=O)cc1[C@@H](NC(C)=O)CC2	< 5.00						
COc1cc2c(c(OC)c1OC)-c1ccc(NCCN3CCC[C@@H]3CO)c(=O)cc1[C@@H](NC(C)=O)CC2	< 5.00						
COc1cc2c(c(OC)c1OC)-c1ccc(NCCN3CCC[C@H]3CO)c(=O)cc1[C@@H](NC(C)=O)CC2	< 5.00						
COc1cc2c(c(OC)c1OC)-c1ccc(NCCCCCCN3CCCC(O)C3)c(=O)cc1[C@@H](NC(C)=O)CC2 (mixture of isomers)	< 5.00						
COc1cc2c(c(OC)c1OC)-c1ccc(NCCN3CCCC(O)C3)c(=O)cc1[C@@H](NC(C)=O)CC2 (mixture of isomers)	5.09						
COc1cc2c(c(OC)c1OC)-c1ccc(OC)c(=O)cc1[C@@H](NC(C)=O)CC2 [COLCHICINE]	7.34	1.2	8.01	8.09	2.5	7.77	8.17
CC(=O)O[C@H]1C(=O)[C@@]2(C)[C@H]([C@H](OC(=O)c3ccccc3)[C@]3(O)C[C@H](OC(=O)[C@H](O)[C@@H](NC(=O)c4ccccc4)c4ccccc4)C(C)=C1C3(C)C)[C@]1(OC(C)=O)CO[C@@H]1C[C@@H]2O [PACLITAXEL]			7.95			< 6.00	5.96
